Measurements taken from US10183973B2, “Solvate of cyclic peptide compound, preparation method for same, and uses thereof” (SHANGHAI TECHWELL BIOPHARMACEUTICAL CO., LTD, priority 2014, dated 2019).
*1 amine or outer side, *2 acyl side, *3 side chain or, on linkers, in order; H or OH if unused. Where a SMILES comes first, the peptide text is derived from it. Bridges are numbered along the chain shown (N, C = ends). [ ]: non-standard residue; d: D form. The star is where a group is joined. hTyr(3S-OH,4S-OH,3'-OSO3H) = N[C@H](C(=O)O)[C@H](O)[C@@H](O)c1ccc(O)c(OS(=O)(=O)O)c1; Orn(4R-OH,5R-OH) = O=C([C@H](C[C@@H](O)[C@@H](O)N[*:3])N[*:1])[*:2]; Pro(3S-OH,4S-Me) = C[C@H]1CN[C@H](C(=O)O)[C@H]1O; X1 = CCCCCOc1ccc(-c2cc(-c3ccc(C(=O)*)cc3)no2)cc1; Gln(3R-OH) = NC(=O)C[C@@H](O)[C@H](N)C(=O)O; Hyp = O=C(O)[C@@H]1C[C@@H](O)CN1

Assay: Purity and stability test (HPLC purity after sealed storage at 25° C. for 30 days)
Assay type: physicochemical
Conditions: for Purity of initial sample: HPLC purity before storage (baseline of stability test); for Purity of sample after stored ar 25° C. for 30 days: sealed, HPLC purity
Excerpt: High performance liquid chromatography (HPLC) is a common method for detecting the purity of a compound, wherein a liquid is used as the mobile phase and a high-pressure transfusion system is used for pumping the mobile phase, such as single solvents with different polarities or a mixture of solvents at different proportions, buffers, into a column packed with a stationary phase. Each component is separated in the column, and then enters into a detector for detection, thereby analyzing a sample. In the present invention, HPLC is used for determining the purity of the compound of formula I and studying the stability of a sample.
HPLC detection method is listed as follows:
Analysis Column: YMC-ODS 250×4.6 mm, 5 μm;
Mobile phase: acetonitrile:phosphate buffer (pH 3.0)=45:70;
Column temperature: 35° C.;
Diluent: aqueous phosphate buffer;
Detection wavelength: 210 nm;
In this Example, the purity and stability of samples obtained in Comparative Examples and Examples were compared. The used method is described as follows:
The solvate of the compound of formula I prepared in Examples 2, the crystal of B82 type obtained in Comparative Example 1 and amorphous solids obtained in Example 1 were taken and sealed at 25° C. for 30 days respectively. And then the content of impurities in the sample was analyzed. Results for comparing the stability of the solvate of the compound of formula I according to the present invention, the crystal of B82 type and the amorphous solid are shown in the following table: […]

Structure (SMILES)	Purity of initial sample	Purity of sample after stored ar 25° C. for 30 days	stability compared with crystal of B82 type (solid-state stability, in words)
CCCCCOc1ccc(-c2cc(-c3ccc(C(=O)N[C@H]4C[C@@H](O)[C@@H](O)NC(=O)[C@@H]5[C@@H](O)[C@@H](C)CN5C(=O)[C@H]([C@H](O)CC(N)=O)NC(=O)[C@H]([C@H](O)[C@@H](O)c5ccc(O)c(OS(=O)(=O)[O-])c5)NC(=O)[C@@H]5C[C@@H](O)CN5C(=O)[C@H]([C@@H](C)O)NC4=O)cc3)no2)cc1.[Na+] [Solvate of the compound of formula I, Sodium 5-[(1S,2S)-2-[(3S,6S,9S,11R,15S,18S,20R,21R,24S,25S,26S)-3-[(R)-2-carbamoyl-1-hydroxyethyl]-11,20,21,25-tetrahydroxy-15-[(R)-1-hydroxyethyl]-26-methyl-2,5,8,14,17,23-hexaoxo-18-[4-[5-(4-pentoxyphenyl)isoxazol-3-yl]benzoylamino]-1,4,7,13,16,22-hexaazatricyclo[22.3.0.0^9,13]heptacosan-6-yl]-1,2-dihydroxyethyl]-2-hydroxy phenyl sulfate] (X1-[Orn(4R-OH,5R-OH)]T[Hyp][hTyr(3S-OH,4S-OH,3'-OSO3H)][Gln(3R-OH)][Pro(3S-OH,4S-Me)]; lactam 1-C)	99.55%	99.50%	better than that of the crystal of B82 type
CCCCCOc1ccc(-c2cc(-c3ccc(C(=O)N[C@H]4C[C@@H](O)[C@@H](O)NC(=O)[C@@H]5[C@@H](O)[C@@H](C)CN5C(=O)[C@H]([C@H](O)CC(N)=O)NC(=O)[C@H]([C@H](O)[C@@H](O)c5ccc(O)c(OS(=O)(=O)[O-])c5)NC(=O)[C@@H]5C[C@@H](O)CN5C(=O)[C@H]([C@@H](C)O)NC4=O)cc3)no2)cc1.[Na+] [Amorphous solids, Micafungin Sodium] (X1-[Orn(4R-OH,5R-OH)]T[Hyp][hTyr(3S-OH,4S-OH,3'-OSO3H)][Gln(3R-OH)][Pro(3S-OH,4S-Me)]; lactam 1-C)	99.38%	89.27%	
CCCCCOc1ccc(-c2cc(-c3ccc(C(=O)N[C@H]4C[C@@H](O)[C@@H](O)NC(=O)[C@@H]5[C@@H](O)[C@@H](C)CN5C(=O)[C@H]([C@H](O)CC(N)=O)NC(=O)[C@H]([C@H](O)[C@@H](O)c5ccc(O)c(OS(=O)(=O)[O-])c5)NC(=O)[C@@H]5C[C@@H](O)CN5C(=O)[C@H]([C@@H](C)O)NC4=O)cc3)no2)cc1.[Na+] [Crystal of B82 type, Micafungin Sodium] (X1-[Orn(4R-OH,5R-OH)]T[Hyp][hTyr(3S-OH,4S-OH,3'-OSO3H)][Gln(3R-OH)][Pro(3S-OH,4S-Me)]; lactam 1-C)	99.50%	96.98%	
